From patent publication US4927922A, “7β-(substituted)amino-3-substituted cephalosporanic acids and esters” (American Cyanamid Company, priority 1988, dated 1990)
Converted amounts (≈) assume the structure as drawn. “And” between values parts separate entries of the source, which are not always exact repeats. Identical values can stand only once. Like-named read-outs stand apart in the source and are kept apart here.

Legend:
Assay in all cases: in vitro agar dilution test (MIC)
Type in all cases: cell-based
Proteus morganii K 79-25 = details: Morganella morganii, K7925, Proteus morganii K 79-25; Mueller-Hinton agar
Method: (§1) The compounds of the present invention are active antibacterial agents as established in the in vitro agar dilution test using Mueller-Hinton agar. The test compounds were dissolved in a mixture of dimethyl sulfoxide and aqueous sodium bicarbonate and applied as 1 ml of drug solution plus 9 ml of agar per plate. The innoculum was a 5 hour TSB shake culture diluted to 10^-2 with Mueller-Hinton broth and applied to the plates with a Steers' Replicator.
(§2) The results of this test on representative compounds of this invention (identified by Example Number) against a variety of microorganisms appear in Tables I and II in terms of minimal inhibitory concentration (MIC) in mcg/ml together with Cefotaxime, Cephalothin and Ampicillin as positive controls.

Pseudomonas 12-4-4 = details: Mueller-Hinton agar
Method: as §1, §2

Salmonella SSC 79-57 = details: SSC7957, Mueller-Hinton agar
Method: as §1, §2

[1] = tested on: Providencia stuarti SSC 80-78; details: SSC8078, Mueller-Hinton agar
Method: as §1, §2

[2] = tested on: Enterobacter aerogenes STFD 79-14; details: Klebsiella aerogenes, STFD7914, Enterobacter aerogenes STFD 79-14; Mueller-Hinton agar
Method: as §1, §2

[3] = tested on: Escherichia coli ESS 22-31; details: ESS2231, Mueller-Hinton agar
Method: as §1, §2

Serratia QHC 77-2 = details: QHC772, Serratia QHC 77-2, Mueller-Hinton agar
Method: as §1, §2

Klebsiella SSC 78-1 = details: SSC781, Klebsiella SSC 78-1, Mueller-Hinton agar
Method: as §1, §2

Serratia TUL 78-15 = details: TUL7815, Serratia TUL 78-15, Mueller-Hinton agar
Method: as §1, §2

Enterococcus OSU 75-1 = details: Mueller-Hinton agar
Method: as §1, §2

Klebsiella STFD 79-6 = details: STFD796, Klebsiella STFD 79-6, Mueller-Hinton agar
Method: as §1, §2

Acinetobacter STFD 79-17 = details: Mueller-Hinton agar
Method: as §1, §2

[4] = tested on: Staphylococcus ATCC 25923; details: ATCC25923, Staphylococcus ATCC 25923, Mueller-Hinton agar, Table I
Method: as §1, §2

[5] = tested on: Enterobacter cloacae K 79-16; details: K7916, Enterobacter cloacae K 79-16, Mueller-Hinton agar
Method: as §1, §2

[6] = tested on: Escherichia coli STFD 79-20; details: STFD7920, Escherichia coli STFD 79-20, Mueller-Hinton agar
Method: as §1, §2

[7] = tested on: Escherichia coli ATCC 25922; details: ATCC25922, Escherichia coli ATCC 25922, Mueller-Hinton agar, Table I
Method: as §1, §2

Proteus rettgheri K 77-6 = details: Mueller-Hinton agar
Method: as §1, §2

[8] = tested on: Staphylococcus FU 79-19-2β^+; details: Mueller-Hinton agar
Method: as §1, §2

[9] = tested on: Salmonella ariz. QHC 77-3; details: Mueller-Hinton agar
Method: as §1, §2

Enterococcus SM 77-15 = details: SM7715, Enterococcus SM 77-15, Mueller-Hinton agar
Method: as §1, §2

[10] = tested on: Providencia stuarti K 81-29; details: K8129, Mueller-Hinton agar
Method: as §1, §2

Pseudomonas SSC 78-13 = details: SSC7813, Mueller-Hinton agar
Method: as §1, §2

Klebsiella pneumoniae AD = details: Mueller-Hinton agar, Table I
Method: as §1, §2

[11] = tested on: Staphylococcus SSC 79-18β^-; details: Mueller-Hinton agar
Method: as §1, §2

[12] = tested on: Micrococcus lutea PCI 1001; details: PCI1001, Micrococcus lutea PCI 1001, Mueller-Hinton agar
Method: as §1, §2

Escherichia coli 311 = details: Escherichia coli, 311, Escherichia coli 311; Mueller-Hinton agar
Method: as §1, §2

Staphylococcus Smith = details: Mueller-Hinton agar, Table I
Method: as §1, §2

[13] = tested on: Pseudomonas aeruginosa ATCC 27853; details: Mueller-Hinton agar
Method: as §1, §2

Acinetobacter K 77-1 = details: K771, Acinetobacter K 77-1, Mueller-Hinton agar
Method: as §1, §2

Proteus rettgheri N 76-1 = details: Mueller-Hinton agar
Method: as §1, §2

[14] = Pseudomonas, 1244, Pseudomonas 12-4-4, read-out: MIC
[15] = Enterococcus, OSU751, Enterococcus OSU 75-1, read-out: MIC
[16] = Acinetobacter, STFD7917, Acinetobacter STFD 79-17, read-out: MIC
[17] = Pseudomonas aeruginosa, ATCC27853, Pseudomonas aeruginosa ATCC 27853, read-out: MIC

Structure (SMILES)	MIC (Proteus morganii K 79-25) [µg/mL]	MIC (Pseudomonas 12-4-4; [14]) [µg/mL]	MIC (Salmonella SSC 79-57) [µg/mL]	MIC [2] [µg/mL]	MIC [3] [µg/mL]	MIC (Serratia QHC 77-2) [µg/mL]	MIC (Klebsiella SSC 78-1) [µg/mL]	MIC (Serratia TUL 78-15) [µg/mL]	MIC (Enterococcus OSU 75-1; [15]) [µg/mL]	MIC (Klebsiella STFD 79-6) [µg/mL]	MIC (Acinetobacter STFD 79-17; [16]) [µg/mL]	MIC [4] [µg/mL]	MIC [5] [µg/mL]	MIC [6] [µg/mL]	MIC [7] [µg/mL]	MIC ([8]; Staphylococcus, read-out: MIC) [µg/mL]	MIC [9] [µg/mL]	MIC (Pseudomonas SSC 78-13) [µg/mL]	MIC (Staphylococcus Smith; Staphylococcus, read-out: MIC) [µg/mL]	MIC [13, 17] [µg/mL]	other results
CO/N=C(\C(=O)N[C@@H]1C(=O)N2C(C(=O)O)=C(CSc3nnsc3C(C)(C)C)CS[C@H]12)c1csc(N)n1 [Example 6, (Z)-7-[[(2-Amino-4-thiazolyl)(methoxyimino)acetyl]amino]-3-[[[5-(1,1-dimethylethyl)-1,2,3-thiadiazol-4-yl]thio]methyl]-8-oxo-5-thia-1-azabicyclo[4.2.0]oct-2-ene-2-carboxylic acid]	16 (≈ 28.1 µM)	64 (≈ 112 µM)	8 (≈ 14 µM)	4 (≈ 7.02 µM)	0.5 (≈ 0.878 µM)	8 (≈ 14 µM)	1 (≈ 1.76 µM)	8 (≈ 14 µM)	256 (≈ 449 µM)	2 (≈ 3.51 µM)	32 (≈ 56.2 µM)	4 (≈ 7.02 µM)	1 (≈ 1.76 µM)	0.5 (≈ 0.878 µM)	2 (≈ 3.51 µM)	16 (≈ 28.1 µM)	2 (≈ 3.51 µM)	64 (≈ 112 µM)	2 (≈ 3.51 µM)	128 (≈ 225 µM)	MIC [1]: 5 µg/mL (≈ 8.78 µM); MIC (Proteus rettgheri K 77-6): ≤ 0.12 µg/mL; MIC (Enterococcus SM 77-15): 128 µg/mL (≈ 225 µM); MIC [10]: 1 µg/mL (≈ 1.76 µM); MIC (Klebsiella pneumoniae AD): 0.25 µg/mL (≈ 0.439 µM); MIC [11]: 1 µg/mL (≈ 1.76 µM); MIC [12]: 0.25 µg/mL (≈ 0.439 µM); MIC (Escherichia coli 311): 0.5 µg/mL (≈ 0.878 µM); MIC (Acinetobacter K 77-1): 32 µg/mL (≈ 56.2 µM)
CO/N=C(\C(=O)N[C@@H]1C(=O)N2C(C(=O)O)=C(CSc3nnsc3-c3ccc(C(C)(C)C)cc3)CS[C@H]12)c1csc(N)n1 [Example 2, (Z)-7-[[(2-Amino-4-thiazolyl)(methoxyimino)acetyl]amino]-3-[[[5-[4-(1,1-dimethylethyl)phenyl]-1,2,3-thiadiazol-4-yl]thio]methyl]-8-oxo-5-thia-1-azabicyclo-[4.2.0]oct-2-ene-2-carboxylic acid]	0.5 (≈ 0.774 µM)	> 256	4 (≈ 6.19 µM)	0.5 (≈ 0.774 µM)	≤ 0.03	32 (≈ 49.5 µM)	0.06 (≈ 0.0929 µM)	32 (≈ 49.5 µM)	256 (≈ 396 µM)	0.06 (≈ 0.0929 µM)	128 (≈ 198 µM)	16 (≈ 24.8 µM)	2 (≈ 3.1 µM)	0.25 (≈ 0.387 µM)	0.06 (≈ 0.0929 µM)	32 (≈ 49.5 µM)	1 (≈ 1.55 µM)	> 256	8 (≈ 12.4 µM)	> 256	MIC (Proteus rettgheri N 76-1): ≤ 0.03 µg/mL; MIC (Enterococcus SM 77-15): 256 µg/mL (≈ 396 µM); MIC (Klebsiella pneumoniae AD): 0.06 µg/mL (≈ 0.0929 µM); MIC [11]: 8 µg/mL (≈ 12.4 µM); MIC [12]: 0.06 µg/mL (≈ 0.0929 µM); MIC (Escherichia coli 311): 0.25 µg/mL (≈ 0.387 µM); MIC (Acinetobacter K 77-1): 16 µg/mL (≈ 24.8 µM)
CO/N=C(\C(=O)N[C@@H]1C(=O)N2C(C(=O)O)=C(CSc3nnsc3-c3ccccc3)CS[C@H]12)c1csc(N)n1 [Example 1, (Z)-7-[[(2-Amino-4-thiazolyl)(methoxyimino)acetyl]amino]-8-oxo-3-[[(5-phenyl-1,2,3-thiadiazol-4-yl)thio]mehtyl]-5-thia-1-azabicyclo[4.2.0]oct-2-ene-2-carboxylic acid]	0.5 (≈ 0.848 µM)	> 128	4 (≈ 6.78 µM)	1 (≈ 1.7 µM)	≤ 0.015	8 (≈ 13.6 µM)	0.5 (≈ 0.848 µM)	8 (≈ 13.6 µM)	128 (≈ 217 µM)	0.5 (≈ 0.848 µM)	16 (≈ 27.1 µM)	2 (≈ 3.39 µM)	4 (≈ 6.78 µM)	0.5 (≈ 0.848 µM)	0.12 (≈ 0.203 µM)	4 (≈ 6.78 µM)	1 (≈ 1.7 µM)	128 (≈ 217 µM)	1 (≈ 1.7 µM)	128 (≈ 217 µM)	MIC (Proteus rettgheri N 76-1): ≤ 0.015 µg/mL; MIC (Enterococcus SM 77-15): 64 µg/mL (≈ 109 µM); MIC (Klebsiella pneumoniae AD): 0.25 µg/mL (≈ 0.424 µM); MIC [11]: 1 µg/mL (≈ 1.7 µM); MIC (Escherichia coli 311): 0.5 µg/mL (≈ 0.848 µM); MIC (Acinetobacter K 77-1): 4 µg/mL (≈ 6.78 µM)
CO/N=C(\C(=O)N[C@@H]1C(=O)N2C(C(=O)O)=C(COC(C)=O)CS[C@H]12)c1csc(N)n1 [Cefotaxime, 3-[(acetyloxy)methyl]-7β-[[(2-amino-4-thiazolyl)(methoxyimino)acetyl]amino]-8-oxo-5-thia-1-azabicyclo[4.2.0]oct-2-ene-2-carboxylic acid, reference compound]		16 (≈ 35.1 µM)	0.25 (≈ 0.549 µM)	0.03 (≈ 0.0659 µM)					128 (≈ 281 µM)		8 (≈ 17.6 µM)					4 (≈ 8.78 µM)		32 (≈ 70.3 µM)	1 (≈ 2.2 µM)	16 (≈ 35.1 µM)	MIC (Pseudomonas 12-4-4; Pseudomonas 12-4-4): 8 µg/mL (≈ 17.6 µM); MIC [1]: ≤ 0.06 µg/mL; MIC (Enterococcus OSU 75-1; Enterococcus OSU 75-1): 64 µg/mL and > 128 µg/mL; MIC (Acinetobacter STFD 79-17; Acinetobacter STFD 79-17): 16 µg/mL (≈ 35.1 µM); MIC (Proteus rettgheri N 76-1): ≤ 0.015 µg/mL; MIC (Proteus rettgheri K 77-6): ≤ 0.06 µg/mL; MIC [8]: 8 µg/mL (≈ 17.6 µM); MIC [10]: 0.25 µg/mL (≈ 0.549 µM); MIC (Staphylococcus Smith): 2 µg/mL (≈ 4.39 µM); MIC ([13]; Pseudomonas aeruginosa ATCC 27853): 32 µg/mL (≈ 70.3 µM)
